From the NIST ThermoML archive (doi:10.1021/je8002095)
± gives the expanded uncertainty stated by the source.

Columns and labels:
[1] = molar heat capacity at constant pressure; details: 101.33 kPa, Liquid, differential scanning calorimeter
[2] = for kinematic viscosity / mass density / speed of sound: 101.33 kPa, Liquid
[3] = refractive index (Na D-line) (dimensionless); details: 101.33 kPa, Liquid

CCCCCCCC[n+]1cccc(C)c1.F[B-](F)(F)F [N-octyl-3-methylpyridinium tetrafluoroborate]
Details	kinematic viscosity, [2] [m2/s]	mass density, [2] [kg/m3]	molar heat capacity at constant pressure, [1] [J/K/mol]	refractive index, [3]	speed of sound, [2] [m/s]	surface tension liquid-gas, [2] [mN/m]
278.15 K	0.00248 ± 0.00084	1106.4 ± 1.9	433.8 ± 26	–	1571.9 ± 3.7	39.82 ± 0.54
280.65 K	0.00193 ± 0.00061	1105 ± 1.9	435.7 ± 26	–	1564.9 ± 3.6	39.28 ± 0.54
283.15 K	0.00154 ± 0.00046	1103.6 ± 1.9	437.4 ± 26	1.45978 ± 0.0013	1557.7 ± 3.6	38.7 ± 0.53
285.65 K	0.00123 ± 0.00034	1102.1 ± 1.8	439.4 ± 26	1.45907 ± 0.0013	1549.2 ± 3.6	38.3 ± 0.53
288.15 K	0.00102 ± 0.00027	1100.7 ± 1.8	441.4 ± 26	1.45835 ± 0.0013	1541.2 ± 3.6	37.91 ± 0.52
290.65 K	0.000817 ± 0.0002	1099.4 ± 1.8	443.7 ± 27	1.45764 ± 0.0013	1533.5 ± 3.6	37.52 ± 0.52
293.15 K	0.000681 ± 0.00016	1097.7 ± 1.8	446.1 ± 27	1.45691 ± 0.0013	1526.3 ± 3.6	37.19 ± 0.52
295.65 K	0.000558 ± 0.00012	1096.3 ± 1.8	448.4 ± 27	1.4562 ± 0.0013	1518.7 ± 3.6	36.81 ± 0.51
298.15 K	0.000462 ± 9e-05	1094.5 ± 1.8	450.5 ± 27	1.45547 ± 0.0013	1511.4 ± 3.6	36.51 ± 0.51
300.65 K	0.000388 ± 7e-05	1093.3 ± 1.8	452.8 ± 27	1.45477 ± 0.0013	1505.4 ± 3.6	36.23 ± 0.5
303.15 K	0.000327 ± 5.4e-05	1091.5 ± 1.8	455 ± 27	1.45405 ± 0.0013	1498.1 ± 3.6	35.94 ± 0.5
305.65 K	0.00028 ± 4.2e-05	1089.7 ± 1.8	457.2 ± 27	1.45333 ± 0.0013	1491.2 ± 3.5	35.67 ± 0.5
308.15 K	0.000238 ± 3.3e-05	1088.1 ± 1.7	459.2 ± 28	1.45261 ± 0.0013	1484.6 ± 3.5	35.46 ± 0.5
310.65 K	0.000205 ± 2.5e-05	1086.3 ± 1.7	461.3 ± 28	1.4519 ± 0.0013	1478.1 ± 3.5	35.22 ± 0.49
313.15 K	0.000177 ± 2e-05	1084.7 ± 1.7	463.3 ± 28	1.45121 ± 0.0013	1472.3 ± 3.5	35.02 ± 0.49
315.65 K	0.000156 ± 1.6e-05	1083.1 ± 1.7	465.1 ± 28	1.45047 ± 0.0013	1465.7 ± 3.5	34.81 ± 0.49
318.15 K	0.000136 ± 1.2e-05	1081.4 ± 1.7	467 ± 28	1.44976 ± 0.0013	1459.3 ± 3.5	34.63 ± 0.49
320.65 K	0.000119 ± 9.2e-06	1079.8 ± 1.7	468.7 ± 28	1.44903 ± 0.0013	1453.2 ± 3.5	34.46 ± 0.49
323.15 K	0.000105 ± 6.9e-06	1078.3 ± 1.7	470.3 ± 28	1.44831 ± 0.0013	1446.5 ± 3.5	34.28 ± 0.48
325.65 K	9.27e-05 ± 5.2e-06	1076.5 ± 1.7	472 ± 28	1.4476 ± 0.0013	1440.4 ± 3.5	34.13 ± 0.48
328.15 K	8.22e-05 ± 3.7e-06	1074.9 ± 1.7	473.7 ± 28	1.4469 ± 0.0013	1433.6 ± 3.5	33.98 ± 0.48
